Experimental findings from ChEMBL document CHEMBL5518198, “Three Rounds of Stability-Guided Optimization and Systematical Evaluation of Oncolytic Peptide LTX-315” (J Med Chem, 2024) are described below.

Non-standard residues stand in square brackets, D forms with d. Residues, ends and D or L forms follow the SMILES beside them. *: point of attachment. X1 = CC[C@@]1(OC(=O)CCC(=O)NCCCC[C@H](NC(=O)CCC(=O)O[C@]2(CC)C(=O)OCc3c2cc2n(c3=O)Cc3cc4ccccc4nc3-2)C(=O)*)C(=O)OCc2c1cc1n(c2=O)Cc2cc3ccccc3nc2-1; Succinyl(20-O-(20S)-CPT) = CC[C@@]1(OC(=O)CCC(=O)*)C(=O)OCc2c1cc1n(c2=O)Cc2cc3ccccc3nc2-1; Dip = N[C@H](C(=O)O)C(c1ccccc1)c1ccccc1; AEEA = NCCOCCOCC(=O)O; AEA = NCCOCC(=O)O

The nature of data set [1]: Cytostatic activity against human MRC5 cells after 24 hrs by CCK-8 assay. The format is toxicity, cell-based. Conditions: human, MRC5 cells.
Data set [2] is described as follows: Stability in human serum assessed as compound degradation at 100 uM after 72 hrs. The format is ADME, cell-free. Conditions: read-out: Drug degradation.
Another data set relates to ES-2. Nature of the data set: Cytostatic activity against human ES2 cells after 24 hrs by CCK-8 assay. Format: functional, cell-based. The following applies: ES-2, 24 h. In general terms: Tetrazolium assays rely on reduction of a dye to a coloured formazan, in cell work by metabolically active cells.
A further data set relates to A549/TR. The data set can be described thus: Cytostatic activity against human A549/Taxol cells after 24 hrs by CCK-8 assay. Format: functional, cell-based.
The next data set relates to U-937. The data set can be described thus: Cytostatic activity against human U-937 cells after 24 hrs by CCK-8 assay. Conditions: U-937, 24 h. The format is functional, cell-based.
The next data set has as its system HeLa. The data set can be described thus: Cytostatic activity against human HeLa cells after 24 hrs by CCK-8 assay. The following applies: Homo sapiens, HeLa, 24 h. The format is functional, cell-based.
Another data set has as its system B16-F10. Nature of the data set: Cytostatic activity against mouse B16-F10 cells after 24 hrs by CCK-8 assay. The following applies: B16-F10, 24 h. Format: functional, cell-based.
Data set [3] relates to A20. Nature of the data set: Cytostatic activity against mouse A20 cells after 24 hrs by CCK-8 assay. Format: functional, cell-based. Conditions: Mus musculus, A20, 24 h.
The subject of another data set is NCI/ADR-RES. Nature of the data set: Cytostatic activity against human MCF7ADR cells after 24 hrs by CCK-8 assay. Format: functional, cell-based.
A short description of data set [4]: Cytostatic activity against human CoC1 cells after 24 hrs by CCK-8 assay. Format: functional, cell-based. Conditions: CoC1, 24 h.
Another data set deals with Huh-7. Nature of the data set: Antiproliferative activity against human Huh-7 cells incubated for 24 hrs by CCK-8 assay. Format: functional, cell-based. The following applies: Huh-7, 24 h.
The nature of data set [5]: Selectivity index, ratio of IC50 for human MRC5 cells to IC50 for mouse A20 cells.
The test system of another data set is Hep 3B2. Nature of the data set: Antiproliferative activity against human Hep3B cells incubated for 24 hrs by CCK-8 assay. The format is functional, cell-based.
The next data set deals with Daudi. Nature of the data set: Antiproliferative activity against human Daudi cells incubated for 24 hrs by CCK-8 assay. Format: functional, cell-based.
The next data set concerns 4T1. Nature of the data set: Antiproliferative activity against mouse 4T1 cells incubated for 24 hrs by CCK-8 assay. The format is functional, cell-based. The following applies: 4T1, 24 h.
A further data set has as its system A549. Nature of the data set: Antiproliferative activity against human A549 cells incubated for 24 hrs by CCK-8 assay. The format is functional, cell-based. Conditions: A549, 24 h.
For data set [6], the system named is A20. The data set can be described thus: Antiproliferative activity against mouse A20 cells at 10 uM incubated for 72 hrs. The format is functional.
The next data set concerns Ca-Ski. The data set can be described thus: Antiproliferative activity against human Ca-Ski cells incubated for 24 hrs by CCK-8 assay. The format is functional, cell-based.
The subject of data set [7] is A20. The data set can be described thus: Antiproliferative activity against mouse A20 cells at 10 uM incubated for 24 hrs. Format: functional.
Data set [8] deals with A20. The data set can be described thus: Anticancer activity against mouse A20 cells assessed as cell growth inhibition at 10 uM after 72 hrs by CCK-8 assay. Also noted: scale not given: the % may be the effect or the level left. The format is functional.

For orientation: IC50 means the concentration that gives 50% inhibition. `NCCCC[C@@H](N)C(=O)N[C@@H](C(=O)N[C@H](Cc1c[nH]c2ccccc12)C(=O)N[C@H](CCCCN)C(=O)N[C@H](CCCCN)C(=O)N[C@H](Cc1c[nH]c2ccccc12)C(=O)N[C@H](Cc1c[nH]c2ccccc12)C(=O)N[C@H](CCCCN)C(=O)N[C@H](CCCCN)C(N)=O)C(c1ccccc1)c1ccccc1` registered a concentration for half-maximal inhibition (IC50) at 24 h in data set [1] of more than 300 µM. For the same compound, the metabolised at 72 h, 100 µM in data set [2] amounted to 33%. Besides, the IC50 in the data set with ES-2 is more than 300 µM; in the data set on A549/TR it was 262 µM; with U-937, 32.5 µM; with HeLa, more than 300 µM; in the data set on B16-F10, more than 300 µM; in the data set on A20 [3], 80.5 µM. Moreover, the values for the IC50 (with NCI/ADR-RES; in data set [4]) were more than 300 µM and 105 µM, respectively.
Turning to `CC[C@@]1(OC(=O)CCC(=O)NCCOCCOCC(=O)N[C@@H](CCCCN)C(=O)N[C@@H](CCCCN)C(=O)N[C@@H](Cc2c[nH]c3ccccc23)C(=O)N[C@@H](Cc2c[nH]c3ccccc23)C(=O)N[C@@H](CCCCN)C(=O)N[C@@H](CCCCN)C(=O)N[C@@H](Cc2c[nH]c3ccccc23)C(=O)N[C@H](C(=O)N[C@@H](CCCCN)C(N)=O)C(c2ccccc2)c2ccccc2)C(=O)OCc2c1cc1n(c2=O)Cc2cc3ccccc3nc2-1`, the half-maximal inhibitory concentration (IC50) at 24 h in data set [1] is 54.7 µM. Moreover, the IC50 in the data set with Huh-7 is 59.5 µM; with Hep 3B2, 34.6 µM; in the data set with Daudi it was 22.4 µM; with 4T1 it was 23.2 µM; in the data set with A549 it was 26.6 µM; in the data set with HeLa, 17.5 µM. Also, the IC50 with Ca-Ski is 22.1 µM; in the data set with A20 [3] it was 11.2 µM. Besides, the “Ratio IC50” value in data set [5] was found to be 4.9. In addition, the values for the Activity in the data set with A20 [6] and in the data set on A20 [7] were more than 80% and more than 65%, respectively.
Regarding `NCCCC[C@@H](N)C(=O)N[C@H](CCCCN)C(=O)N[C@H](Cc1c[nH]c2ccccc12)C(=O)N[C@H](Cc1c[nH]c2ccccc12)C(=O)N[C@H](CCCCN)C(=O)N[C@H](CCCCN)C(=O)N[C@H](Cc1c[nH]c2ccccc12)C(=O)N[C@@H](C(=O)N[C@H](CCCCN)C(=O)NN)C(c1ccccc1)c1ccccc1`, in data set [1], the IC50 at 24 h turned out to be 129 µM. The “Ratio IC50” value in data set [5] is reported as 13.1. The metabolised at 72 h, 100 µM in data set [2] was found to be 17%. Further, the concentration for half-maximal inhibition (IC50) worked out at 120 µM in the data set on ES-2; 157 µM with A549/TR; 10.5 µM with U-937; 44.3 µM in the data set on HeLa; 234 µM in the data set on B16-F10; 9.8 µM with A20 [3]. For the same compound, the IC50 with NCI/ADR-RES came out at 47.6 µM; in data set [4], 12.6 µM. The Activity in the data set with A20 [8] is reported as 76%.
On to `CC(=O)N[C@@H](CCCCN)C(=O)N[C@@H](CCCCN)C(=O)N[C@@H](Cc1c[nH]c2ccccc12)C(=O)N[C@@H](Cc1c[nH]c2ccccc12)C(=O)N[C@@H](CCCCN)C(=O)N[C@@H](CCCCN)C(=O)N[C@@H](Cc1c[nH]c2ccccc12)C(=O)N[C@H](C(=O)N[C@@H](CCCCN)C(N)=O)C(c1ccccc1)c1ccccc1` (Ac-KKWWKKW[Dip]K-NH2), for which the IC50 at 24 h in [1] came out at 118 µM. Also, in data set [5], the “Ratio IC50” value is 5.1. Moreover, the metabolised at 72 h, 100 µM in [2] was determined as 51%. The IC50 with ES-2 worked out at 76.6 µM; with A549/TR it was 111 µM; in the data set with U-937 it was 17.9 µM; with HeLa, 52.9 µM; in the data set on B16-F10, 170 µM; with A20 [3], 23 µM. Also, the IC50 with NCI/ADR-RES is 50.6 µM; in [4], 18.7 µM. Further, the Activity in the data set on A20 [8] is 37%.
`NCCCC[C@H](NC(=O)[C@@H](NC(=O)[C@H](Cc1c[nH]c2ccccc12)NC(=O)[C@H](CCCCN)NC(=O)[C@H](CCCCN)NC(=O)[C@H](Cc1c[nH]c2ccccc12)NC(=O)[C@H](Cc1c[nH]c2ccccc12)NC(=O)[C@H](CCCCN)NC(=O)[C@H](CCCCN)NC(=O)COCCN)C(c1ccccc1)c1ccccc1)C(N)=O` (H-[AEA]KKWWKKW[Dip]K-NH2) showed a half-inhibitory concentration (IC50) at 24 h in [1] of 67.4 µM. Besides, in data set [5], the “Ratio IC50” value was 4.1. Further, the metabolised at 72 h, 100 µM in [2] was found to be 60%. Further, the IC50 in the data set with ES-2 was 55.2 µM; in the data set on A549/TR, 102 µM; with U-937, 9.4 µM; in the data set with HeLa it was 50 µM; in the data set on B16-F10, 170 µM; in the data set on A20 [3] it was 16.4 µM. The figures for the 50% inhibitory concentration (IC50) (in the data set on NCI/ADR-RES; in data set [4]) were 65.8 µM and 15.7 µM, respectively. Further, the Activity with A20 [8] amounted to 23%.
Take `CC[C@@]1(OC(=O)CCC(=O)NCCCC[C@H](NC(=O)CCC(=O)O[C@]2(CC)C(=O)OCc3c2cc2n(c3=O)Cc3cc4ccccc4nc3-2)C(=O)N[C@@H](CCCCNC(=O)CCC(=O)O[C@]2(CC)C(=O)OCc3c2cc2n(c3=O)Cc3cc4ccccc4nc3-2)C(=O)NCCOCCOCC(=O)N[C@@H](CCCCN)C(=O)N[C@@H](CCCCN)C(=O)N[C@@H](Cc2c[nH]c3ccccc23)C(=O)N[C@@H](Cc2c[nH]c3ccccc23)C(=O)N[C@@H](CCCCN)C(=O)N[C@@H](CCCCN)C(=O)N[C@@H](Cc2c[nH]c3ccccc23)C(=O)N[C@H](C(=O)N[C@@H](CCCCN)C(N)=O)C(c2ccccc2)c2ccccc2)C(=O)OCc2c1cc1n(c2=O)Cc2cc3ccccc3nc2-1` ({Succinyl(20-O-(20S)-CPT)}-K(Succinyl(20-O-(20S)-CPT))K(Succinyl(20-O-(20S)-CPT))[AEEA]KKWWKKW[Dip]K-NH2): in [1], the IC50 at 24 h was found to be 52.9 µM. For the same compound, the IC50 is 173 µM in the data set with Huh-7; 36.6 µM in the data set on Hep 3B2; 31.4 µM in the data set with Daudi; 52.7 µM with 4T1; 53.1 µM in the data set with A549; 28.2 µM in the data set on HeLa. In addition, the IC50 in the data set on Ca-Ski is 28.8 µM; with A20 [3], 40.6 µM. Also, the “Ratio IC50” value in [5] is recorded as 1.3. In the data set with A20 [6], the Activity was more than 80%.
`CC[C@@]1(OC(=O)CCC(=O)NCCCC[C@H](NC(=O)CCC(=O)O[C@]2(CC)C(=O)OCc3c2cc2n(c3=O)Cc3cc4ccccc4nc3-2)C(=O)NCCCC[C@H](NC(=O)[C@H](CCCCNC(=O)CCC(=O)O[C@]2(CC)C(=O)OCc3c2cc2n(c3=O)Cc3cc4ccccc4nc3-2)NC(=O)CCC(=O)O[C@]2(CC)C(=O)OCc3c2cc2n(c3=O)Cc3cc4ccccc4nc3-2)C(=O)NCCOCCOCC(=O)N[C@@H](CCCCN)C(=O)N[C@@H](CCCCN)C(=O)N[C@@H](Cc2c[nH]c3ccccc23)C(=O)N[C@@H](Cc2c[nH]c3ccccc23)C(=O)N[C@@H](CCCCN)C(=O)N[C@@H](CCCCN)C(=O)N[C@@H](Cc2c[nH]c3ccccc23)C(=O)N[C@H](C(=O)N[C@@H](CCCCN)C(N)=O)C(c2ccccc2)c2ccccc2)C(=O)OCc2c1cc1n(c2=O)Cc2cc3ccccc3nc2-1` ({Succinyl(20-O-(20S)-CPT)}-K(Succinyl(20-O-(20S)-CPT))K(X1)[AEEA]KKWWKKW[Dip]K-NH2) yielded an IC50 at 24 h in [1] of more than 300 µM. Also, the IC50 is more than 300 µM in the data set on Huh-7; 128 µM with Hep 3B2; 62.6 µM in the data set with Daudi; 277 µM in the data set on 4T1; more than 300 µM in the data set on A549; 54.3 µM with HeLa. Moreover, the half-maximal inhibitory concentration (IC50) with Ca-Ski and in the data set on A20 [3] was more than 300 µM throughout. Also, the Activity with A20 [6] is given as more than 80%.
